Measured values reported in patent publication US20200068887A1, “TREATMENT FOR REMOVING ECTOPARASITES FROM FISH” (priority 2016, published 2020).

Assays:
Assay type in all cases: in vivo
L. salmonis = experiment: Field well boat treatment, pre- vs post-treatment sea lice counts; conditions: 20 ppm 60 min on well boat, within 24 hours after treatment, 30 fish per pen; pens A-D
Protocol: (§1) The effectiveness of imidacloprid against pre-adult and adult stages of L. salmonis and Caligus sp. infections on farmed Atlantic salmon was investigated by performing pre- and post-treatment sea lice counts on salmon undergoing a treatment with imidacloprid. This trial was conducted at a commercial salmon farm in Norway. The salmon were pumped onto a well boat and were exposed to 20 ppm imidacloprid for 60 minutes. The average weight of the salmon was 3.5 kg and the average number of salmon per pen was 180,000. 30 fish per pen were assessed for L. salmonis and Caligus sp., and the number of each L. salmonis life stage found was recorded. This was performed within 24 hours prior to treatment, and within 24 hours after treatment.
These assessments were made on four pens of salmon in total. Prior to treatment, fish were crowded within the pen to enable them to be pumped into the well boat, which is where the pre-treatment sea lice assessments were conducted. The post-treatment sea lice assessments were made by removing fish from the outflow pipe on the well boat.
At all time points, 3 fish were removed and placed into an anaesthetic bath. This was repeated 10 times until 30 fish had been assessed.
(§2) The numbers of sea lice observed per fish for this trial for each of the four tested pens according to sea lice life cycle state, pre- or post-administration of active are presented in Table 5.

farmed Atlantic salmon = experiment: Observation of fish during field treatment; conditions: 20 ppm, 60 minutes, well boat
Protocol: as §1, §2

salmon louse [1] = experiment: Bath treatment of lice-infected Atlantic salmon, percent lice removed; conditions: 12° C.
Protocol: To determine the concentration- and time-dependence of imidacloprid treatment in vivo, Atlantic salmon (average of 320.9 g) were challenged with imidacloprid in seawater (32.5%0 salinity) at 12° C. The water level in the tank was lowered and aeration was employed during administration of the active. The salmon louse copepodid culture was counted and adjusted to obtain a target level of around 40 copepodids per fish in the challenge tank at each challenge time point.
Salmon lice on the fish were counted using standard methods. Only lice on the fish's outer surface, not including gills and oral/buccal cavities, were investigated.
(§3) Numbers of dissociated lice in tank water or attached to the tank walls were recorded. Lice in the tank water were collected and assessed for ability to attach by suction to a smooth plastic surface immediately after treatment and again after 30-60 minutes (to assess possible revival). Live and viable lice were also collected from the mock-treated control groups for reference and held in revival chambers for the same period of time to assess the system.
The test solutions of the active were prepared (added and homogenised with seawater) and administered to a treatment volume of 40 litres.
Three sea lice-infected fish from the holding tank were randomly gathered and carefully steered into a barrel forming an inner compartment (diameter=34.5-40 cm; height=54 cm) that was submerged in the tank and in which the base has been replaced with a plastic mesh screen with 9 mm^2 square holes.
The fish were transferred to the inner compartment within 3 minutes of each test start. The inner compartment was suspended/submerged in the holding tank pending treatment. Treatments and mock treatments were implemented by draining the inner compartment with fish and transferring it to a barrel containing the test solution. Treatments/mock treatments were performed in static water with aeration/oxygenation. Aeration was adjusted to set the oxygen saturation to 70-100%.
To terminate the treatment, the inner compartment with treated fish was lifted to the surface and drained, then fish were transferred directly and without water to a second basin with a lethal overdose of anaesthetic and left until dead. All lice remaining on these fish and lice that fell off in the anaesthetic bath were recorded.
Exposure times with imidacloprid ranged from 3 to 60 minutes, and doses ranged from 20 ppm to 200 ppm.
Negative control groups at 3- and 60 minutes were duplicated. Superscript numbers denote the total number of lice on the 3 fish in each test.
By way of comparison, fish infected with sea lice from the same sources were treated with azamethiphos at 0.1 mg/l and deltamethrin at 0.2 μ/l for 30 minutes, per the recommended dosage regimes. Treatments were carried out under similar conditions as those treated with imidacloprid. A mock-treatment control was also administered. Each treatment condition was administered in duplicate.
Superscript numbers denote the total number of lice on the 3 fish in each test.

Lepeophtheirus salmonis = experiment: Relative efficacy study (optimisation of treatment concentration); conditions: for Parasite clearance: n=2, ±SEM
Protocol: 120 salmon fish (Salmo salar) were divided across five flow-through treatment tanks and acclimated for 24 hours prior to parasite challenge.
Egg strings removed from ovigerous female Lepeophtheirus salmonis were collected and cultured until infective copepodids were produced. The copepodids were then evenly distributed into five bottles containing sea water and stored at ˜10° C. overnight. In preparation for the challenge, water flows in the treatment tanks were stopped and light levels reduced. 650±20 copepodids (˜27 per host) were added to the static water and the tanks maintained in total darkness for 7 hours after which light levels were raised and the water flow resumed.
Fish were randomly divided into ten groups of ten fish and held in static ‘treatment buckets’ containing 30 L of water and high aeration as shown in Table 3.
Eight of the groups (3-10) were treated with the required concentrations of imidacloprid for 60 minutes: imidacloprid was dissolved in DMSO and added to ˜1L of tank water prior to addition to the treatment buckets. The remaining group and its replicate (1 & 2) were DMSO controls at 0.03%.
Experimental animals were monitored closely for adverse reactions and the status of the parasite infection. Where possible the time at which all parasites were thought to have detached was recorded. As treatments were performed in static systems, temperature and dissolved oxygen were regularly monitored throughout the procedure and aeration adjusted as required.
After the treatment period, the test animals were removed from the treatment solution and humanly euthanised. Each fish was weighed, measured, and its individual parasite burden assessed. The number of parasites in the treatment solution was also counted and qualitatively assessed for: sex and maturity, apparent signs of neonicotinoid poisoning, and/or potential recovery.
Logistic regression was used to compare parasite clearance after treatment with each of the concentration. Logistic regression analyses were performed using the glm function in R v.2.13.0 and assumed a binomial or quasi-binomial error distribution (determined through the comparison of the null deviance with the degrees of freedom).

salmon louse [2] = experiment: Revival rates of sea lice after bath treatment
Protocol: as §3
Remaining lice in the treatment bath were strained through a plankton mesh (2 mm pore size) that was suspended in a water bath with clean seawater. The lice in this collector were transferred to a plastic beaker (1 litre) and then again into a revival tube (5 cm diameter; 10 cm length). Lice that are able to attach to the walls of the treatment tanks or beaker within 3 minutes of completion of each test were scored as viable.

O=[N+]([O-])NC1=NCCN1Cc1ccc(Cl)nc1 [imidacloprid]
sea lice per fish, Adult Female, Post (L. salmonis): 0.0 | sea lice per fish, Adult Male, Post (L. salmonis): 0.0 | sea lice per fish, Gravid Female, Post (L. salmonis): 0.0 | sea lice per fish, Pre-Adult Female, Post (L. salmonis): 0.0 | sea lice per fish, Pre-Adult Male, Post (L. salmonis): 0.0 | sea lice per fish, Total, Post (L. salmonis): 0.0 | adverse behaviours of fish throughout treatment (farmed Atlantic salmon): no adverse behaviours seen | percentage lice removed from fish after treatment relative to total numbers of lice (salmon louse [1]; 20 ppm, 30 minutes, total 36 lice on 3 fish): 63.9^36% | percentage lice removed from fish after treatment relative to total numbers of lice (salmon louse [1]; 20 ppm, 60 minutes, total 27 lice on 3 fish): 74.1^27% | percentage lice removed from fish after treatment relative to total numbers of lice (salmon louse [1]; 50 ppm, 30 minutes, total 23 lice on 3 fish): 91.3^23% | percentage lice removed from fish after treatment relative to total numbers of lice (salmon louse [1]; 100 ppm, 3 minutes, total 43 lice on 3 fish): 7.0^43% | percentage lice removed from fish after treatment relative to total numbers of lice (salmon louse [1]; 100 ppm, 15 minutes, total 38 lice on 3 fish): 73.7^38% | percentage lice removed from fish after treatment relative to total numbers of lice (salmon louse [1]; 200 ppm, 5 minutes, total 34 lice on 3 fish): 55.9^34% | percentage lice removed from fish after treatment relative to total numbers of lice (salmon louse [1]; 200 ppm, 15 minutes, total 47 lice on 3 fish): 91.5^47% | parasites remaining attached to their hosts at sampling (Lepeophtheirus salmonis; 10 mg/l, 60 min): 20% | Parasite clearance (Lepeophtheirus salmonis; 10 mg/l, 60 min): 80±11% | parasites remaining attached to their hosts at sampling (Lepeophtheirus salmonis; 15 mg/l, 60 min): 8% | Parasite clearance (Lepeophtheirus salmonis; 15 mg/l, 60 min): 92±4% | parasites remaining attached to their hosts at sampling (Lepeophtheirus salmonis; 20 mg/l, 60 min): 8% | Parasite clearance (Lepeophtheirus salmonis; 20 mg/l, 60 min): 92±7% | parasites remaining attached to their hosts at sampling (Lepeophtheirus salmonis; 25 mg/l, 60 min): 3% | Parasite clearance (Lepeophtheirus salmonis; 25 mg/l, 60 min): 97±3% | parasite infection removed (Lepeophtheirus salmonis; all four dosages (10, 15, 20, 25 mg/l), 60 minute treatment): 80-100% | optimum concentration within the range tested (Lepeophtheirus salmonis; range 10-25 mg/l, 60 min, no significant increase in efficacy above): 15 mg/L | % active at 30-60 min. post-treatment, Attached lice collected from fish (salmon louse [2]; 20 ppm 30 min, n lice 9): 11.1% | % active at 30-60 min. post-treatment, Detached lice collected from tank water (salmon louse [2]; 20 ppm 30 min, n lice 23): 4.3% | % active at 30-60 min. post-treatment, Detached lice collected from tank water (salmon louse [2]; 20 ppm 60 min, n lice 20): 0.0% | % active at 30-60 min. post-treatment, Detached lice collected from tank water (salmon louse [2]; 50 ppm 30 min, n lice 31): 0.0% | % active at 30-60 min. post-treatment, Detached lice collected from tank water (salmon louse [2]; 100 ppm 3 min, n lice 3): 33.3% | % active at 30-60 min. post-treatment, Detached lice collected from tank water (salmon louse [2]; 100 ppm 15 min, n lice 28): 0.0% | % active at 30-60 min. post-treatment, Attached lice collected from fish (salmon louse [2]; 200 ppm 5 min, n lice 13): 0.0% | % active at 30-60 min. post-treatment, Detached lice collected from tank water (salmon louse [2]; 200 ppm 5 min, n lice 13): 0.0% | % active at 30-60 min. post-treatment, Detached lice collected from tank water (salmon louse [2]; 200 ppm 15 min, n lice 43): 0.0%
